Source: ChEMBL document CHEMBL1255418, “Occurrence of ST23 complex phylogroup A Escherichia coli isolates producing extended-spectrum AmpC beta-lactamase in a French hospital” (2010)
Converted amounts (≈) assume the structure as drawn.

The compounds below were run on Escherichia coli (assay: Antimicrobial activity against Escherichia coli isolate 8009162 AmpC with A292V mutation).
Type: functional

Structure (SMILES)	MIC
CO/N=C(\C(=O)N[C@@H]1C(=O)N2C(C(=O)[O-])=C(C[N+]3(C)CCCC3)CS[C@H]12)c1csc(N)n1 [CEFEPIME]	0.75 µg/mL (≈ 1.56 µM)

Each compound was assayed on Escherichia coli (assay: Antimicrobial activity against wild-type AmpC producing Escherichia coli ATCC 25922).
Type: functional

Structure (SMILES)	MIC
CO/N=C(\C(=O)N[C@@H]1C(=O)N2C(C(=O)[O-])=C(C[N+]3(C)CCCC3)CS[C@H]12)c1csc(N)n1 [CEFEPIME]	< 0.06 µg/mL

What follows are compounds tested on Escherichia coli (assay: Antimicrobial activity against Escherichia coli isolate 8009989 with AmpC beta-lactamase H296P mutation).
Type: functional

Structure (SMILES)	MIC
CO/N=C(\C(=O)N[C@@H]1C(=O)N2C(C(=O)[O-])=C(C[N+]3(C)CCCC3)CS[C@H]12)c1csc(N)n1 [CEFEPIME]	8 µg/mL (≈ 16.6 µM)

What follows are compounds tested on Escherichia coli (assay: Antimicrobial activity against Escherichia coli isolate 7014517 AmpC with LAA insertion at position 295).
Type: functional

Structure (SMILES)	MIC
CO/N=C(\C(=O)N[C@@H]1C(=O)N2C(C(=O)[O-])=C(C[N+]3(C)CCCC3)CS[C@H]12)c1csc(N)n1 [CEFEPIME]	8 µg/mL (≈ 16.6 µM)

The compounds below were run on Escherichia coli (assay: Antimicrobial activity against Escherichia coli isolate 7008710 with AmpC beta-lactamase S287N mutation).
Type: functional

Structure (SMILES)	MIC
CO/N=C(\C(=O)N[C@@H]1C(=O)N2C(C(=O)[O-])=C(C[N+]3(C)CCCC3)CS[C@H]12)c1csc(N)n1 [CEFEPIME]	8 µg/mL (≈ 16.6 µM)

What follows are compounds tested on Escherichia coli (assay: Antimicrobial activity against AmpC producing Escherichia coli Top10 isolate 25922).
Type: functional

Structure (SMILES)	MIC
CO/N=C(\C(=O)N[C@@H]1C(=O)N2C(C(=O)[O-])=C(C[N+]3(C)CCCC3)CS[C@H]12)c1csc(N)n1 [CEFEPIME]	0.06 µg/mL (≈ 0.125 µM)

These compounds were tested on Escherichia coli (assay: Antimicrobial activity against Escherichia coli isolate 7008211 with AmpC beta-lactamase H296P mutation).
Type: functional

Structure (SMILES)	MIC
CO/N=C(\C(=O)N[C@@H]1C(=O)N2C(C(=O)[O-])=C(C[N+]3(C)CCCC3)CS[C@H]12)c1csc(N)n1 [CEFEPIME]	16 µg/mL (≈ 33.3 µM)

The compounds below were run on Escherichia coli (assay: Antimicrobial activity against AmpC producing Escherichia coli Top10 isolate 7014517).
Type: functional

Structure (SMILES)	MIC
CO/N=C(\C(=O)N[C@@H]1C(=O)N2C(C(=O)[O-])=C(C[N+]3(C)CCCC3)CS[C@H]12)c1csc(N)n1 [CEFEPIME]	4 µg/mL (≈ 8.32 µM)

What follows are compounds tested on Escherichia coli (assay: Antimicrobial activity against Escherichia coli isolate 5000869 with AmpC beta-lactamase H296P mutation).
Type: functional

Structure (SMILES)	MIC
CO/N=C(\C(=O)N[C@@H]1C(=O)N2C(C(=O)[O-])=C(C[N+]3(C)CCCC3)CS[C@H]12)c1csc(N)n1 [CEFEPIME]	4 µg/mL (≈ 8.32 µM)

What follows are compounds tested on Escherichia coli (assay: Antimicrobial activity against Escherichia coli isolate 4009273 with AmpC beta-lactamase S287N mutation).
Type: functional

Structure (SMILES)	MIC
CO/N=C(\C(=O)N[C@@H]1C(=O)N2C(C(=O)[O-])=C(C[N+]3(C)CCCC3)CS[C@H]12)c1csc(N)n1 [CEFEPIME]	4 µg/mL (≈ 8.32 µM)

What follows are compounds tested on Escherichia coli (assay: Antimicrobial activity against AmpC producing Escherichia coli Top10 isolate 8009162).
Type: functional

Structure (SMILES)	MIC
CO/N=C(\C(=O)N[C@@H]1C(=O)N2C(C(=O)[O-])=C(C[N+]3(C)CCCC3)CS[C@H]12)c1csc(N)n1 [CEFEPIME]	0.75 µg/mL (≈ 1.56 µM)

The compounds below were run on Escherichia coli (assay: Antimicrobial activity against Escherichia coli isolate 7001178 with AmpC beta-lactamase S287N mutation).
Type: functional

Structure (SMILES)	MIC
CO/N=C(\C(=O)N[C@@H]1C(=O)N2C(C(=O)[O-])=C(C[N+]3(C)CCCC3)CS[C@H]12)c1csc(N)n1 [CEFEPIME]	2 µg/mL (≈ 4.16 µM)

The compounds below were run on Escherichia coli (assay: Antimicrobial activity against Escherichia coli isolate 7008153 with AmpC beta-lactamase H296P mutation).
Type: functional

Structure (SMILES)	MIC
CO/N=C(\C(=O)N[C@@H]1C(=O)N2C(C(=O)[O-])=C(C[N+]3(C)CCCC3)CS[C@H]12)c1csc(N)n1 [CEFEPIME]	16 µg/mL (≈ 33.3 µM)

These compounds were tested on Escherichia coli (assay: Antimicrobial activity against Escherichia coli Top10).
Type: functional

Structure (SMILES)	MIC
CO/N=C(\C(=O)N[C@@H]1C(=O)N2C(C(=O)[O-])=C(C[N+]3(C)CCCC3)CS[C@H]12)c1csc(N)n1 [CEFEPIME]	< 0.06 µg/mL

What follows are compounds tested on Escherichia coli (assay: Antimicrobial activity against Escherichia coli isolate 8009162 with AmpC beta-lactamase A292V mutation).
Type: functional

Structure (SMILES)	MIC
CO/N=C(\C(=O)N[C@@H]1C(=O)N2C(C(=O)[O-])=C(C[N+]3(C)CCCC3)CS[C@H]12)c1csc(N)n1 [CEFEPIME]	0.75 µg/mL (≈ 1.56 µM)

The compounds below were run on Escherichia coli (assay: Antimicrobial activity against Escherichia coli isolate 7010738 with AmpC beta-lactamase H296P mutation).
Type: functional

Structure (SMILES)	MIC
CO/N=C(\C(=O)N[C@@H]1C(=O)N2C(C(=O)[O-])=C(C[N+]3(C)CCCC3)CS[C@H]12)c1csc(N)n1 [CEFEPIME]	8 µg/mL (≈ 16.6 µM)

The compounds below were run on Escherichia coli (assay: Antimicrobial activity against Escherichia coli isolate 7014517 with AmpC beta-lactamase 295 Ins LAA mutation).
Type: functional

Structure (SMILES)	MIC
CO/N=C(\C(=O)N[C@@H]1C(=O)N2C(C(=O)[O-])=C(C[N+]3(C)CCCC3)CS[C@H]12)c1csc(N)n1 [CEFEPIME]	8 µg/mL (≈ 16.6 µM)

The compounds below were run on Escherichia coli (assay: Antimicrobial activity against Escherichia coli isolate 8009389 with AmpC beta-lactamase H296P mutation).
Type: functional

Structure (SMILES)	MIC
CO/N=C(\C(=O)N[C@@H]1C(=O)N2C(C(=O)[O-])=C(C[N+]3(C)CCCC3)CS[C@H]12)c1csc(N)n1 [CEFEPIME]	16 µg/mL (≈ 33.3 µM)
